{
  "source": "patent US20250313548A1",
  "about": "(Actio Biosciences, Inc., priority 2023, published 2025)",
  "data": [
    {"biological_target": "human, KCNT1 (Homo sapiens (Human), UniProt Q5JUK3)", "sequence (Q5JUK3 whole entry)": "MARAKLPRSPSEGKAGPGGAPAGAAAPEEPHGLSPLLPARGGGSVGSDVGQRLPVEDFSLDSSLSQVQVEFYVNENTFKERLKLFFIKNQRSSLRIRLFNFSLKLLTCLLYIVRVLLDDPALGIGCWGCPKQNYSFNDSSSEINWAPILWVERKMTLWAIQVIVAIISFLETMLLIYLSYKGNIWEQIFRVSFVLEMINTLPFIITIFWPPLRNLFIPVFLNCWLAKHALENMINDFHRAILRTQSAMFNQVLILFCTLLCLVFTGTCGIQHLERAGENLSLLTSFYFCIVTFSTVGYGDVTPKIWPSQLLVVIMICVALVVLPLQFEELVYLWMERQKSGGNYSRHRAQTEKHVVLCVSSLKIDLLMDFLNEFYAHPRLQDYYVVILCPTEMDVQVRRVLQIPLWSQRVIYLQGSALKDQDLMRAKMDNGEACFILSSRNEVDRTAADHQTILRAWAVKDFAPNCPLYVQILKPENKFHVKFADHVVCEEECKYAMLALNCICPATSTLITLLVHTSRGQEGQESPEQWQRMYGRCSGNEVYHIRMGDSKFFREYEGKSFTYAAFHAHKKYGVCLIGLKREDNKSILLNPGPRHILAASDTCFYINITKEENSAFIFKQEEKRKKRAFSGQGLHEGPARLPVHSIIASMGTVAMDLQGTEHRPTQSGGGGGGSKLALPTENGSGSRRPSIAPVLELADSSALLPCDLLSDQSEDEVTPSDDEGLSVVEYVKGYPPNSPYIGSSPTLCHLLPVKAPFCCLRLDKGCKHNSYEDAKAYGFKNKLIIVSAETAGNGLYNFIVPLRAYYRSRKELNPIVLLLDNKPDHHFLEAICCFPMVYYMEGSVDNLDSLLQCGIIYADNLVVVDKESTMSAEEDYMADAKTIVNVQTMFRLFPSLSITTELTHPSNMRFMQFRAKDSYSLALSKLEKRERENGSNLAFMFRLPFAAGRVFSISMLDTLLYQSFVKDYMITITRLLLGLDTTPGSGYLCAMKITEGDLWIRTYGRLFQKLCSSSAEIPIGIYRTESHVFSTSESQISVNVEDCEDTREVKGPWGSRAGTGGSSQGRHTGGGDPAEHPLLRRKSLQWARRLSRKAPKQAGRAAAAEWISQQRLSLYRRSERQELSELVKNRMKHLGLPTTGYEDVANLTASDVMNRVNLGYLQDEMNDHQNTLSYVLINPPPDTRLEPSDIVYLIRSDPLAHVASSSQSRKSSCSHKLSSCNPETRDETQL", "assay": "FLIPR Tl/K Flux Assay", "format": "cell-based", "details": "HEK293 cells stably expressing human KCNT1; Tl+ flux stimulated with EC80 of agonist Loxapine", "method_in_brief": "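HEK293 cells stably expressing human KCNT1 were loaded with FLIPR potassium dye in HEPES/HBSS pH 7.4 with 5 mM probenecid, 1 h at 25 °C, then given test compound for 30 min at 25 °C. Tl+ flux was triggered with chloride-free buffer containing Tl+ and EC80 loxapine and read 160 s. IC50 came from Hill fits of % inhibition.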", "units": {"IC50": "nM"}, "values": [
      {"smiles": "Cc1nc(C(F)(F)F)sc1C(=O)N[C@H]1CCCn2nc(-c3ccnc(C(F)(F)F)c3)cc21", "note": "[Compound I-358a]", "IC50": "< 250"},
      {"smiles": "CCOc1cc(F)cc(C(=O)N[C@H]2CCn3nc(-c4ccnc(C(F)(F)F)c4)cc32)c1", "note": "[Compound I-568a, (S)-3-Ethoxy-5-fluoro-N-(2-(2-(trifluoromethyl)pyridin-4-yl)-5,6-dihydro-4H-pyrrolo[1,2-b]pyrazol-4-yl)benzamide]", "IC50": "< 250"},
      {"smiles": "COc1cc(-c2cc3n(n2)CCC[C@@H]3NC(=O)c2cccc(C#N)c2)c(C)cn1", "note": "[Compound I-222a, (S)-3-Cyano-N-(2-(2-methoxy-5-methylpyridin-4-yl)-4,5,6,7-tetrahydropyrazolo[1,5-a]pyridin-4-yl)benzamide]", "IC50": "< 250"},
      {"smiles": "COc1cc(-c2cc3n(n2)CCC[C@@H]3NC(=O)c2cc(C(F)(F)F)nn2C)cc(OC)n1", "note": "[Compound I-344a]", "IC50": "> 1000"},
      {"smiles": "Cc1cc(Cl)ccc1C(=O)N[C@H]1CCc2nn(-c3ccnc(C(F)(F)F)c3)cc21", "note": "[Compound I-95a]", "IC50": "< 250"},
      {"smiles": "CS(=O)(=O)c1ccc(C(=O)N[C@@H]2CCc3nn(-c4ccnc(C(F)(F)F)c4)cc32)cc1", "note": "[Compound I-96b]", "IC50": "> 1000"},
      {"smiles": "Cc1cnc(C(F)(F)F)cc1-n1cc2c(n1)CCC[C@@H]2NC(=O)c1cc(C(F)(F)F)nn1C", "note": "[Compound I-445a]", "IC50": "< 250"},
      {"smiles": "Cn1nc(C(F)(F)F)cc1C(=O)NC1CCCc2nn(-c3cc[nH]c(=O)c3)cc21", "note": "(racemic) [Compound I-35, (rac)-1-Methyl-N-(2-(2-oxo-1,2-dihydropyridin-4-yl)-4,5,6,7-tetrahydro-2H-indazol-4-yl)-3-(trifluoromethyl)-1H-pyrazole-5-carboxamide]", "IC50": "> 1000"},
      {"smiles": "COc1cc(C(=O)N[C@H]2CCCCn3nc(-c4ccnc(C(F)(F)F)c4)cc32)ccn1", "note": "[Compound I-329a, (S)-2-Methoxy-N-(2-(2-(trifluoromethyl)pyridin-4-yl)-5,6,7,8-tetrahydro-4H-pyrazolo[1,5-a]azepin-4-yl)isonicotinamide]", "IC50": "< 250"},
      {"smiles": "Cc1nc(C(F)(F)F)oc1C(=O)N[C@H]1CCCn2nc(-c3ccnc(C(F)(F)F)c3)cc21", "note": "[Compound I-125a, (S)-4-Methyl-2-(trifluoromethyl)-N-(2-(2-(trifluoromethyl)pyridin-4-yl)-4,5,6,7-tetrahydropyrazolo[1,5-a]pyridin-4-yl)oxazole-5-carboxamide]", "IC50": "< 250"},
      {"smiles": "Cc1cn(C)nc1C(=O)N[C@H]1CCCn2nc(-c3ccnc(C(F)(F)F)c3)cc21", "note": "[Compound I-416a]", "IC50": "250 to 500"},
      {"smiles": "Cn1nc(C(F)(F)F)cc1C(=O)N[C@H]1CCCn2nc(-c3ccnc(C(F)(F)F)c3)nc21", "note": "[Compound I-86a, (S)-1-Methyl-3-(trifluoromethyl)-N-(2-(2-(trifluoromethyl)pyridin-4-yl)-5,6,7,8-tetrahydro-[1,2,4]triazolo[1,5-a]pyridin-8-yl)-1H-pyrazole-5-carboxamide]", "IC50": "< 250"},
      {"smiles": "COc1cc(-c2nc3c(o2)CCC[C@@H]3NC(=O)c2cc(F)cc(C#N)c2)ccn1", "note": "[Compound I-275a]", "IC50": "< 250"},
      {"smiles": "COc1cc(-c2nc3c(o2)CCC[C@@H]3NC(=O)c2cc3cccnn3c2)ccn1", "note": "[Compound I-293a, (S)-N-(2-(2-Methoxypyridin-4-yl)-4,5,6,7-tetrahydrobenzo[d]oxazol-4-yl)pyrrolo[1,2-b]pyridazine-6-carboxamide]", "IC50": "250 to 500"},
      {"smiles": "O=C(N[C@H]1CCCn2nc(-c3ccnc(C(F)(F)F)c3)cc21)c1cc2n(n1)CCO2", "note": "[Compound I-436a]", "IC50": "> 1000"},
      {"smiles": "Cn1nc(C(F)(F)F)cc1C(=O)N[C@H]1CCc2nn(-c3ccnc(C(C)(C)O)c3)cc21", "note": "[Compound I-76a]", "IC50": "> 1000"},
      {"smiles": "CC(F)(F)c1cc(-c2cc3n(n2)CCC[C@@H]3NC(=O)c2ccnc(C(F)(F)F)c2)ccn1", "note": "[Compound I-500a, (S)-N-(2-(2-(1,1-Difluoroethyl)pyridin-4-yl)-4,5,6,7-tetrahydropyrazolo[1,5-a]pyridin-4-yl)-2-(trifluoromethyl)isonicotinamide]", "IC50": "< 250"},
      {"smiles": "COc1cc(-c2nc3c(o2)[C@@H](NC(=O)c2cc(Cl)cc(Cl)c2)CCC3)c(F)cn1", "note": "[Compound I-174a, (S)-3,5-Dichloro-N-(2-(5-fluoro-2-methoxypyridin-4-yl)-4,5,6,7-tetrahydrobenzo[d]oxazol-7-yl)benzamide]", "IC50": "< 250"},
      {"smiles": "N#Cc1cc(F)cc(C(=O)N[C@@H]2CCCCn3nc(-c4ccnc(C5CC5)c4)cc32)c1", "note": "[Compound I-470b]", "IC50": "< 250"},
      {"smiles": "Cn1nc(C(F)(F)F)cc1C(=O)NC1CCCc2nn(-c3ccn(C)c(=O)c3)cc21", "note": "(racemic) [Compound I-40, (rac)-1-Methyl-N-(2-(1-methyl-2-oxo-1,2-dihydropyridin-4-yl)-4,5,6,7-tetrahydro-2H-indazol-4-yl)-3-(trifluoromethyl)-1H-pyrazole-5-carboxamide]", "IC50": "> 1000"},
      {"smiles": "CC(C)Oc1cc(C(=O)N[C@H]2CCn3nc(-c4cc(C(F)(F)F)ncc4F)cc32)ccn1", "note": "[Compound I-546a, (S)-N-(2-(5-Fluoro-2-(trifluoromethyl)pyridin-4-yl)-5,6-dihydro-4H-pyrrolo[1,2-b]pyrazol-4-yl)-2-isopropoxyisonicotinamide]", "IC50": "< 250"},
      {"smiles": "O=C(N[C@H]1CCCn2nc(-c3ccnc(C(F)(F)F)c3)cc21)c1cn(C(F)(F)F)nc1C(F)(F)F", "note": "[Compound I-338a, (S)-1,3-bis(trifluoromethyl)-N-(2-(2-(trifluoromethyl)pyridin-4-yl)-4,5,6,7-tetrahydropyrazolo[1,5-a]pyridin-4-yl)-1H-pyrazole-4-carboxamide]", "IC50": "< 250"},
      {"smiles": "CCc1cc(-n2cc3c(n2)CC[C@H]3NC(=O)c2cc(C(F)(F)F)nn2C)ccn1", "note": "[Compound I-69b]", "IC50": "> 1000"},
      {"smiles": "O=C(N[C@H]1CCCc2oc(-c3ccnc(C4CC4)c3)nc21)c1cnn(C(F)(F)F)c1C(F)(F)F", "note": "[Compound I-530a, (S)—N-(2-(2-cyclopropylpyridin-4-yl)-4,5,6,7-tetrahydrobenzo[d]oxazol-4-yl)-1,5-bis(trifluoromethyl)-1H-pyrazole-4-carboxamide]", "IC50": "< 250"},
      {"smiles": "CCc1cc(C#N)cc(C(=O)N[C@H]2CCc3nn(-c4ccnc(C(F)(F)F)c4)cc32)c1", "note": "[Compound I-246a, (S)-3-Cyano-5-ethyl-N-(2-(2-(trifluoromethyl)pyridin-4-yl)-2,4,5,6-tetrahydrocyclopenta[c]pyrazol-4-yl)benzamide]", "IC50": "< 250"},
      {"smiles": "C#Cc1cc(-n2cc3c(n2)CC[C@H]3NC(=O)c2cc(C(F)(F)F)nn2C)ccn1", "note": "[Compound I-78b]", "IC50": "> 1000"},
      {"smiles": "COc1cc(-c2cc3n(n2)CC[C@H]3NC(=O)c2cc(F)cc(F)c2)ccn1", "note": "[Compound I-447b]", "IC50": "< 250"},
      {"smiles": "COc1cc(-c2nc3c(o2)[C@@H](NC(=O)c2ccnc(OC(F)(F)F)c2)CCC3)ccn1", "note": "[Compound I-135a, (S)-N-(2-(2-Methoxypyridin-4-yl)-4,5,6,7-tetrahydrobenzo[d]oxazol-7-yl)-2-(trifluoromethoxy)isonicotinamide]", "IC50": "< 250"},
      {"smiles": "Cn1cc(C(F)(F)F)nc1C(=O)NC1CCCc2nn(-c3ccnc(C(F)(F)F)c3)cc21", "note": "(racemic) [Compound I-24, (rac)-1-Methyl-4-(trifluoromethyl)-N-(2-(2-(trifluoromethyl)pyridin-4-yl)-4,5,6,7-tetrahydro-2H-indazol-4-yl)-1H-imidazole-2-carboxamide]", "IC50": "500 to 1000"},
      {"smiles": "Cc1ccn(CC(=O)N[C@H]2CCCn3nc(-c4ccnc(C(F)(F)F)c4)cc32)n1", "note": "[Compound I-423a]", "IC50": "> 1000"},
      {"smiles": "O=C(N[C@H]1CCCn2nc(-c3ccnc(C(F)(F)F)c3)cc21)c1ccc(F)c(OC(F)(F)F)c1", "note": "[Compound I-411a]", "IC50": "< 250"},
      {"smiles": "Cn1nc(C(F)(F)F)cc1C(=O)N[C@H]1CCCc2nn(-c3ccnc(C4CC4)c3)cc21", "note": "[Compound I-48a]", "IC50": "< 250"},
      {"smiles": "CC(C)(O)c1cc(F)cc(C(=O)N[C@H]2CCn3nc(-c4ccnc(C(F)(F)F)c4)cc32)c1", "note": "[Compound I-570a, (S)-3-Fluoro-5-(2-hydroxypropan-2-yl)-N-(2-(2-(trifluoromethyl)pyridin-4-yl)-5,6-dihydro-4H-pyrrolo[1,2-b]pyrazol-4-yl)benzamide]", "IC50": "< 250"},
      {"smiles": "Cc1cc(C(=O)N[C@H]2CCCn3nc(-c4ccnc(C(F)(F)F)c4)cc32)cc(C)n1", "note": "[Compound I-414a]", "IC50": "< 250"},
      {"smiles": "CCOc1cc(-n2cc3c(n2)CCCC3NC(=O)c2cc(C(F)(F)F)nn2CC)ccn1", "note": "(racemic) [Compound I-55, (rac)-N-(2-(2-Ethoxypyridin-4-yl)-4,5,6,7-tetrahydro-2H-indazol-4-yl)-1-ethyl-3-(trifluoromethyl)-1H-pyrazole-5-carboxamide]", "IC50": "< 250"},
      {"smiles": "Cn1nc(C#N)cc1C(=O)N[C@H]1CCCc2nn(-c3ccnc(C(F)(F)F)c3)cc21", "note": "[Compound I-113a]", "IC50": "250 to 500"},
      {"smiles": "Cn1nc(C(F)(F)F)cc1C(=O)N[C@H]1CCCn2nc(-c3ccnc(OC(F)(F)F)c3)cc21", "note": "[Compound I-391a]", "IC50": "< 250"},
      {"smiles": "O=C(N[C@H]1CCn2nc(-c3ccnc(C(F)(F)F)c3)cc21)c1cnc(C(F)(F)F)cn1", "note": "[Compound I-571a, (S)-5-(Trifluoromethyl)-N-(2-(2-(trifluoromethyl)pyridin-4-yl)-5,6-dihydro-4H-pyrrolo[1,2-b]pyrazol-4-yl)pyrazine-2-carboxamide]", "IC50": "< 250"},
      {"smiles": "COc1cc(-c2cc3n(n2)CCCC[C@@H]3NC(=O)c2cccc(C#N)c2)ccn1", "note": "[Compound I-456a]", "IC50": "< 250"},
      {"smiles": "Cn1nc(C(F)(F)F)cc1C(=O)NC1(C)CCCc2nn(-c3ccnc(C(F)(F)F)c3)cc21", "note": "(stereo not drawn) [Compound I-51]", "IC50": "> 1000"},
      {"smiles": "Cc1cnc(C(F)(F)F)cc1-c1cc2n(n1)CC[C@@H]2NC(=O)c1nc(C(F)(F)F)nn1C", "note": "[Compound I-141a, (S)-1-Methyl-N-(2-(5-methyl-2-(trifluoromethyl)pyridin-4-yl)-5,6-dihydro-4H-pyrrolo[1,2-b]pyrazol-4-yl)-3-(trifluoromethyl)-1H-1,2,4-triazole-5-carboxamide]", "IC50": "< 250"},
      {"smiles": "COc1cc(C(=O)N[C@H]2CCn3nc(-c4ccnc(C(F)(F)F)c4)cc32)ccn1", "note": "[Compound I-331a, (S)-2-Methoxy-N-(2-(2-(trifluoromethyl)pyridin-4-yl)-5,6-dihydro-4H-pyrrolo[1,2-b]pyrazol-4-yl)isonicotinamide]", "IC50": "< 250"}
    ]}
  ]
}
